Measured values reported in patent US20050192240A1, “Methods and compositions relating to expression factors” (priority 2004, published 2005).
Values after ≈ are worked out from the molar mass of the structure shown. Read-outs that look alike come from different tables or passages of the source.

Tests used:
Type in all cases: cell-based
C. albicans [1] = experiment: RT-PCR of CDR1 and CaNDT80 mRNA with or without miconazole; conditions: miconazole 100 μg/ml, one hour, 30° C.; strains SC5314, YLO133, YLO137
Experimental: C. albicans strains SC5314 (wild type), YLO133 (homozygous mutant Candt80/Candt80) and YLO137 (rescued strain of YLO133 with one copy of CaNDT80), were grown in the presence or absence of the antifungal agent, miconazole (Sigma) at 100 μg/ml for one hour at 30° C. The level of mRNAs of TEF3 (control), CDR1, and CaNDT80, was measured by reverse transcriptase polymerase chain reaction (RT-PCR). […] Lanes 2-4 and 11-13 represent mRNA from YLO133 (homozygous mutant), lanes 5-7 and 14-16 represent mRNA from YLO137 (rescued mutant), and lanes 8-10 and 17-19 represent mRNA from the wild-type strain, SC5314. Lanes 2, 5, 8, 11, 14, and 17 were tested for TEF3 mRNA (internal control); lanes 3, 6, 9, 12, 15, and 18, were tested for CDR1 mRNA; and lanes 4, 7, 10, 13, 16, and 19 were tested for CaNDT80 mRNA. As expected, no CaNDT80 mRNA was detected in the homozygous mutant (FIG. 9, lanes […] and 13). In contrast, CaNDT80 mRNA was detected in the wild-type strain during vegetative growth (FIG. 9, lanes 10 and 19), unlike its homolog NDT80 in S. cerevisiae.

S. cerevisiae = experiment: Etest antifungal strip susceptibility of S. cerevisiae strains; conditions: for MIC: Saccharomyces cerevisiae, SD plate, 30° C., read-out: minimum inhibitory concentration (MIC)
Source text: The effect on drug susceptibility by overexpression of CaNdt80p and its S. cerevisiae homolog, Ndt80p, were compared using the antifungal strips, Etest (AB BIODISK, Solna, Sweden) (Arendrup et al., J. Antimicrob. Chemother. 47:521-526, 2001; Chang et al., J. Clin. Microbiol 39:1328-1333, 2001). S. cerevisiae Ndt80p was identified as a meiosis specific transcription factor (Chu et al., Science 282:699-705, 1998; Chu and Herskowitz, Mol. Cell 1:685-696, 1998). Ndt80p is autoregulated and activates its targets through a mid-sporulation element consensus site (MSE: gNCRCAAAA/T) in the target (Chu and Herskowitz, Mol. Cell 1:685-696, 1998). Expression of the NDT80 gene is repressed during vegetative growth (Xu et al., Mol. Cell Biol. 15:6572-6581, 1995; Pak and Segall, Mol. Cell Biol. 22:6417-6429, 2002).
First, homogenized isolated colonies from an overnight SD plate were transferred into a 0.85% NaCl solution to achieve a suspension containing 5×10^6 cells/ml. A sterile swab was dipped into the inoculum suspension and the entire agar surface of an SD plate was streaked evenly with the swab. The plates were allowed to dry until all excess moisture was completely absorbed, and the Etest strips (AB BIODISK, Solna, Sweden) were applied onto each plate. The plates were incubated at 30° C. and were photographed after 3 days of growth. These Etest strips tested the susceptibility to ketoconazole (0.002-32 μg/ml) (KE) and fluconazole (0.016-256 μg/ml) (FL). Susceptibility is indicated by a clear ring around the antifungal strips where growth has been inhibited. Degree of susceptibility is indicated by the size of the ring. The strains tested were the NDT80/NDT80 wild type S. cerevisiae strain transformed with the control vectors 2μ-URA3and CEN-LEU2 (Christianson et al., Gene 110:119-122, 1992; Sikorski and Hieter, Genetics 122:19-27, 1989) (designated as strain SLO16) (“NDT80/NDT80” lane in FIG. 6); a ndt80/ndt80 homozygous mutant transformed with the control 2μ-URA3 vector (designated as strain SLO14) (“ndt80/ndt80 2μ vector” lane in FIG. 6); a ndt80/ndt80 homozygous mutant transformed with the 2μ-URA3-NDT80 plasmid, LOB46 (designated as strain SLO13) (“ndt80/ndt80 2μ NDT80” lane in FIG. 6); and a ndt80/ndt80 homozygous mutant transformed with the 2μ-URA3-CaNDT80 plasmid, LOB44 (designated as strain SLO15) (“ndt80/ndt80 2μ CaNDT80” lane in FIG. 6).
In a separate experiment, a strain harboring the LOB44 plasmid without the NDT80 gene was tested in the Etest.

C. albicans [2] = experiment: Etest antifungal strip susceptibility of C. albicans strains
Experimental: The three C. albicans strains SC5314 (wild type), YLO133 (homozygous mutant Candt80/Candt80) and YLO137 (rescued strain of YLO133 with one copy of CaNDT80), were also tested for susceptibility to five different drugs using the Etest. Five different antifungal strips (AB BIODISK, Solna, Sweden) were used: amphotericin B at 0.002-32 μg/ml (AP), 5-fluorocytosine at 0.002-32 μg/ml (FC), fluconazole at 0.016-256 μg/ml (FL), itraconazole at 0.002-32 μg/ml (IT) and ketoconazole at 0.002-32 μg/ml (KE). Each strain was grown overnight on an SD plate and homogenized colonies from the plate were transferred into 0.85% NaCl to achieve a suspension of about 5×10^6 cells/ml. A sterile swab was dipped into the inoculum suspension and the entire agar surface of a SD plate was evenly streaked. Each plate was dried until excess moisture was completely absorbed and each of the five different Etest strips were applied onto each plate. The plates were incubated at 30° C. and were photographed after 2 days of growth. Susceptibility to a drug is indicated by a clear inhibition zone around the antifungal strip where growth has been inhibited. Degree of susceptibility is indicated by the size of the ring.

C. albicans [3] = experiment: Agar dilution assay of C. albicans strains; conditions: Candt80/Candt80 mutant versus wild-type or rescued strain; fluconazole 25 μg/ml, voriconazole 1 μg/ml
Experimental: The cdr1/cdr1 homozygous mutant was constructed according to Sanglard et al., Antimicrob. Agents Chemother. 40:2300-2305, 1996. Fluconazole and voriconazole were prepared to a final concentration of 25 μg/ml and 1 μg/ml, respectively in dimethylsulfoxide (DMSO). C. albicans cells grown on media containing DMSO and in the absence of drug, was used as the control. C. albicans cells were diluted to an OD600 of 2 (corresponding to approximately 2×10^7cells/ml) and 0.5 μl was spotted onto plates containing either fluconazole (25 μg/ml) or voriconazole (1 μg/ml) using a replica device (Oxoid Inc., Canada). Cells were also prepared and spotted in 10-fold serial dilutions (10^4 to 10 cells).

[4] = S. cerevisiae overexpressing CaNDT80 (LOB44 plasmid)
[5] = S. cerevisiae transformed with control vector
[6] = homozygous mutant Candt80/Candt80 (YLO133) compared with wild type SC5314, 2 days

**Q.** With `Clc1ccc(COC(Cn2ccnc2)c2ccc(Cl)cc2Cl)c(Cl)c1` (stereo not drawn) [miconazole] as the compound, how does the “patterns of TEF3, CDR1 and CaNDT80 mRNA with versus without treatment” value (C. albicans [1]) read?
**A.** Its value is “comparable”.

**Q.** How did the MIC (S. cerevisiae; [4]) turn out when `CC(=O)N1CCN(c2ccc(OCC3COC(Cn4ccnc4)(c4ccc(Cl)cc4Cl)O3)cc2)CC1` (stereo not drawn) [ketoconazole] was run?
**A.** Its MIC is ≥ 32 µg/mL.

**Q.** And the MIC (S. cerevisiae; [5])?
**A.** The MIC was 6 µg/mL (≈ 11.3 µM).

**Q.** What about the “drug susceptibility (inhibition zone)” value (S. cerevisiae; ndt80/ndt80 2μ CaNDT80 compared with NDT80/NDT80 S. cerevisiae, 3 days) of the same compound?
**A.** Its value is “decreased”.

**Q.** And the “drug susceptibility (inhibition zone)” value (C. albicans [2]; [6])?
**A.** Its value is “increased susceptibility”.

**Q.** For `C[C@@H](c1ncncc1F)[C@](O)(Cn1cncn1)c1ccc(F)cc1F` [voriconazole], which “susceptibility (growth on drug plates)” value (C. albicans [3]) is on record?
**A.** The value was “more susceptible”.

**Q.** Which MIC (S. cerevisiae; [4]) does the source give for `OC(Cn1cncn1)(Cn1cncn1)c1ccc(F)cc1F` [fluconazole] here?
**A.** The MIC was 64 µg/mL (≈ 209 µM).

**Q.** What about the MIC (S. cerevisiae; [5]) of the same compound?
**A.** The MIC was 24 µg/mL (≈ 78.4 µM).

**Q.** What about the “susceptibility (growth on drug plates)” value (C. albicans [3]) of the same compound?
**A.** The value was “more susceptible”.

**Q.** And the “drug susceptibility (inhibition zone)” value (C. albicans [2]; [6])?
**A.** The value was “increased susceptibility”.

**Q.** What about the “drug susceptibility (inhibition zone)” value (C. albicans [2]; rescued strain YLO137 (one copy of CaNDT80) compared with wild type SC5314, 2 days) of the same compound?
**A.** Its value is “more susceptible”.

**Q.** How did the “drug susceptibility (inhibition zone)” value (C. albicans [2]; [6]) turn out when `Nc1nc(=O)[nH]cc1F` [5-fluorocytosine] was run?
**A.** Its value is “increased susceptibility”.
